Details in all cases: binder
Assay [1] addresses T1, BMPR2 (Homo sapiens, UniProt Q13873).
T1 sequence (Q13873 1-1038): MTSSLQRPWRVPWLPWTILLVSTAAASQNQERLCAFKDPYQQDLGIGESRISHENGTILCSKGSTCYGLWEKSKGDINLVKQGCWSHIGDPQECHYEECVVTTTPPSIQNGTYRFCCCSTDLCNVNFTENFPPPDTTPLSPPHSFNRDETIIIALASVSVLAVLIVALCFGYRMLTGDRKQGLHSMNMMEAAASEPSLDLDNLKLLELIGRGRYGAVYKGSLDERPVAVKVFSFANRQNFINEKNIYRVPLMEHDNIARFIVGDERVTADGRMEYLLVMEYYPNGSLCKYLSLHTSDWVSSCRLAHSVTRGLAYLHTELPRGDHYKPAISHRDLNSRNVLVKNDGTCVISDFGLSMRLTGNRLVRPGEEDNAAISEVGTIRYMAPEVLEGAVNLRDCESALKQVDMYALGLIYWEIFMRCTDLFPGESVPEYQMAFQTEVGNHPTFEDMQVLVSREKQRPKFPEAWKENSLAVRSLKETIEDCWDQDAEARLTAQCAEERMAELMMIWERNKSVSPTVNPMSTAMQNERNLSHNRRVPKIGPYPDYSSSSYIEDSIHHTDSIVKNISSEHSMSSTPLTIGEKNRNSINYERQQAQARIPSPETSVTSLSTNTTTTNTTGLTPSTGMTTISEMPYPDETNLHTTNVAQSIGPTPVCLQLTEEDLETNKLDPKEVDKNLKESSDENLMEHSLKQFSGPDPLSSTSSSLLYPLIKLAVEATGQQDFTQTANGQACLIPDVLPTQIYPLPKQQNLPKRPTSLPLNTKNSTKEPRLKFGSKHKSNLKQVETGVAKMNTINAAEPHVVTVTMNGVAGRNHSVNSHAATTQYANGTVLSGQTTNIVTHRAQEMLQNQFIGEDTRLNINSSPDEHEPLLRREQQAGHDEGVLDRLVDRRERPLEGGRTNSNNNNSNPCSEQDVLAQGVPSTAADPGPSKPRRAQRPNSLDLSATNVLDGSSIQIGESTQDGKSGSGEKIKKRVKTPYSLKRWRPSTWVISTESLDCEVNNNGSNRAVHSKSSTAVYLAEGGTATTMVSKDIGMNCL

For assay [2], the target named is GPRK5 (Homo sapiens, UniProt P34947).
Assay [3] concerns the target T2, GAK (Homo sapiens, UniProt O14976).
T2 sequence (O14976 1-1311): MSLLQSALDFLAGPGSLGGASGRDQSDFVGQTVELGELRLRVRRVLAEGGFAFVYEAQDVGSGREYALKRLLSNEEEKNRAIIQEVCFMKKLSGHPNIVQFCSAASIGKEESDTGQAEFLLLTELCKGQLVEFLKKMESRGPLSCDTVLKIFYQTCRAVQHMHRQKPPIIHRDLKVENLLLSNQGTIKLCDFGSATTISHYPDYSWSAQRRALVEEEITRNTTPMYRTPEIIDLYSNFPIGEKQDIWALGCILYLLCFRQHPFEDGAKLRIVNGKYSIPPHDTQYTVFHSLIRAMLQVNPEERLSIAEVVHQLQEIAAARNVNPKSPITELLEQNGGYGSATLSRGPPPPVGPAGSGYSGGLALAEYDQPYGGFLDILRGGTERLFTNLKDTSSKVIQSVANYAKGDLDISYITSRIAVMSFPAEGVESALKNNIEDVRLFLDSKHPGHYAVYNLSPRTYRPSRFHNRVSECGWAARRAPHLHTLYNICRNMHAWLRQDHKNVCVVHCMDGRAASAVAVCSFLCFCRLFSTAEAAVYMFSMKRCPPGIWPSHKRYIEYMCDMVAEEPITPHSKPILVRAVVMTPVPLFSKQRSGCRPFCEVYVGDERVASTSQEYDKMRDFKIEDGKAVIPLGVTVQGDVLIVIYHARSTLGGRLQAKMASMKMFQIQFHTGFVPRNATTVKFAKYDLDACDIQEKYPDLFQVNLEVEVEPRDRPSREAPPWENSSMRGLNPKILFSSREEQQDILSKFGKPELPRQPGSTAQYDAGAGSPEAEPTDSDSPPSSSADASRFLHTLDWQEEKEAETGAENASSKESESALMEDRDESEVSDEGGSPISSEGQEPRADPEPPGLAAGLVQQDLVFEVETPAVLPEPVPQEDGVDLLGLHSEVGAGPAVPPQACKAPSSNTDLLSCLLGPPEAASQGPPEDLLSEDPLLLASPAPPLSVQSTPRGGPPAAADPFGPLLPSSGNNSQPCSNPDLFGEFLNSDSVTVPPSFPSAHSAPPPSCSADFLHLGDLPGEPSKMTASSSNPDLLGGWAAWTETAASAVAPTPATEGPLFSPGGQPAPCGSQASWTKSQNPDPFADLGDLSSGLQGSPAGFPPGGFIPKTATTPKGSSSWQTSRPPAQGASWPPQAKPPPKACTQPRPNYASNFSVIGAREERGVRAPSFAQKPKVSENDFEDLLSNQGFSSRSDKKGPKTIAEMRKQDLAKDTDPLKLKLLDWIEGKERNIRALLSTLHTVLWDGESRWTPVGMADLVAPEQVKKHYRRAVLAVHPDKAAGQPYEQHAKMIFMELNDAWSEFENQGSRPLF

Chain of GPRK5 (P34947 whole entry): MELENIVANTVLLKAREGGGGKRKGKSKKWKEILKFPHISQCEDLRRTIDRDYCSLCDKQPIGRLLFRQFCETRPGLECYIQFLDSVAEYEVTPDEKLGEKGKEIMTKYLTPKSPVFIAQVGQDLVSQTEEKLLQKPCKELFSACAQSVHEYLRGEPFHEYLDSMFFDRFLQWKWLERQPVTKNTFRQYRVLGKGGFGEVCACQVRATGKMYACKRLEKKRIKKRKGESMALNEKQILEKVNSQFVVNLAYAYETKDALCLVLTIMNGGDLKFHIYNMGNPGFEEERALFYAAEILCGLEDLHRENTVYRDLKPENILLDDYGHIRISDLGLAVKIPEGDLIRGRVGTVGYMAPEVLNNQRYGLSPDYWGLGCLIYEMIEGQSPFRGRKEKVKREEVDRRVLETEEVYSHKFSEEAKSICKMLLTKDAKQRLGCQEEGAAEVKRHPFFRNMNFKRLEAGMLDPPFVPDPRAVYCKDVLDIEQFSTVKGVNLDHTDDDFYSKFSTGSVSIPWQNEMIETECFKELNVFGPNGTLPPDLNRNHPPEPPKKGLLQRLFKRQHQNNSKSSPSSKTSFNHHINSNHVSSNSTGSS

In the case of `COc1ccc(O)c(Nc2ncc3cc(-c4ccc(-c5cccc(C)n5)cc4Cl)c(=O)n(CCCCN)c3n2)c1` [compound 34, 8-(4-Aminobutyl)-6-(2-chloro-4-(6-methylpyridin-2-yl)phenyl)-2-((2-hydroxy-5-methoxy-phenyl)amino)pyrido[2,3-d]pyrimidin-7(8H)-one], the “dTm 34” value in assay [1] is 0.0 °C; in assay [2], -0.7 °C; in assay [3] it was 9.3 °C.

On to `Cc1cccc(-c2ccc(-c3cc4cnc(Nc5ccc(F)c(CO)c5)nc4n(CCCCN)c3=O)c(Cl)c2)n1` [compound 33, 8-(4-Aminobutyl)-6-(2-chloro-4-(6-methylpyridin-2-yl)phenyl)-2-((4-fluoro-3-(hydroxymethyl)phenyl)amino)pyrido[2,3-d]pyrimidin-7(8H)-one], for which the “dTm 33” value in assay [1] was -0.1 °C; in assay [2], -0.8 °C; in assay [3], 12.5 °C.

In the case of `COc1cc(N2CCOCC2)ccc1Nc1ncc2cc(-c3ccc(-c4cccc(C)n4)cc3Cl)c(=O)n(CCCCN)c2n1` [compound 35, 8-(4-Aminobutyl)-6-(2-chloro-4-(6-methylpyridin-2-yl)phenyl)-2-((2-methoxy-4-morpholino-phenyl)amino)pyrido[2,3-d]pyrimidin-7(8H)-one], the “dTm 35” value in assay [1] is -1.0 °C; in assay [2] it was -2.1 °C; in assay [3] it was 13.5 °C.

Consider `COc1cc(N2CCN(C)CC2)ccc1Nc1ncc2cc(-c3ccc(-c4cccc(C)n4)cc3Cl)c(=O)n(CCCCN)c2n1` [compound 36, 8-(4-Aminobutyl)-6-(2-chloro-4-(6-methylpyridin-2-yl)phenyl)-2-((2-methoxy-4-(4-methylpiperazin-1-yl)phenyl)amino)pyrido[2,3-d]pyrimidin-7(8H)-one], for which the “dTm 36” value was -0.2 °C in assay [1], -1.3 °C in assay [2] and 11.7 °C in assay [3].

Values taken from paper doi:10.1101/2023.11.24.568596v1 (biorxiv, 2023).
